# Measured values published in US20250188079A1, “INHIBITING CYCLIC AMP-RESPONSIVE ELEMENT-BINDING PROTEIN (CREB)” (Forma Therapeutics, Inc., priority 2019, published 2025).
# Molecular target: CBP (Homo sapiens (Human), UniProt Q92793)
# Experiment: HTRF biochemical assay for CBP activity (TR-FRET, bromodomain)
# Type: binding
# Conditions: geometric mean, 10-point 3-fold dilution 33 μM to 1.7 nM, read-out: BROMO IC50 TRF TB CBP (μM gmean)
# Method in brief: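 IC50 derives from a 4-parameter logistic fit of % inhibition, calculated from the 520/490 nm TR-FRET ratio against DMSO and no-enzyme controls. Final compound levels spanned 33 μM to 1.7 nM (10 points, 3-fold), with CBP and peptide ligand in Hepes pH 7.5/GSH/BGG/BSA/Triton buffer, incubated at room temperature for varying times.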
# Chain of CBP (Q92793 1085-1192): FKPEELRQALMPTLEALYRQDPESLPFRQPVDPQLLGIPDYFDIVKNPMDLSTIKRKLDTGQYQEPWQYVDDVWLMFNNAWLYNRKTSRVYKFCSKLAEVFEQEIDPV
row,Structure (SMILES),IC50 [µM]
1,COC(=O)N1CCc2ccc3c(nc(C4CCCCC4)n3CC[C@H]3CCC[C@H](C(=O)O)C3)c2C1 [Compound 172],0.001 to 0.01
2,COC(=O)N1CCc2ccc3c(nc(C4CCCCC4)n3C[C@H](O)c3cccc(C(=O)O)c3)c2C1 [Compound 173],0.01 to 0.1
3,COC(=O)N1CCc2ccc3c(nc(C4CCC(C(=O)O)CC4)n3[C@H](C)C[C@]3(C)CC[C@H](OC)CC3)c2C1 (stereo partly drawn) [Compound 175],0.01 to 0.1
4,COC(=O)N1CCc2ccc3c(nc(C4CCCCC4)n3CC[C@H]3CCC[C@@H](C(=O)O)C3)c2C1 [Compound 177],0.01 to 0.1
5,COC(=O)N1CCc2cc(C(=O)O)c3c(nc(C4CCCCC4)n3CCc3ccccc3)c2C1 [Compound 181],0.01 to 0.1
6,COC(=O)N1CCc2ccc3c(nc(N4CCOCC4)n3[C@@H](C)Cc3cccc(C(=O)O)c3)c2C1 [Compound 182],0.01 to 0.1
7,COC(=O)N1CCc2ccc3c(nc([C@H]4CC[C@H](C(=O)O)CC4)n3[C@@H](C)C[C@@H]3CCCOC3)c2C1 [Compound 183],0.01 to 0.1
8,COC(=O)N1CCc2ccc3c(nc(-c4cccc([C@](C)(O)C(=O)O)c4)n3[C@@H](C)Cc3ccccc3)c2C1 [Compound 184],0.01 to 0.1
9,COC(=O)N1CCc2ccc3c(nc(-c4cccc(C(C)(C)C(=O)O)c4)n3[C@@H](C)Cn3cc(Cl)cn3)c2C1 [Compound 185],0.01 to 0.1
10,COC(=O)N1CCc2ccc3c(nc(C4CCCCC4)n3C[C@H]3CCCC[C@H]3C(=O)O)c2C1 [Compound 187],0.01 to 0.1
11,COC(=O)N1CCc2ccc3c(nc(C4CCCCC4)n3C[C@@H](C(=O)O)c3ccc(F)c(OC)c3)c2C1 [Compound 190],0.01 to 0.1
12,COC(=O)N1CCc2ccc3c(nc(C4CCCCC4)n3CC[C@H]3CCCC[C@H]3C(=O)O)c2C1 [Compound 193],0.01 to 0.1
13,COC(=O)N1CCc2ccc3c(nc(C4CCCCC4)n3C[C@@H]3CCCC[C@@H]3C(=O)O)c2C1 [Compound 195],0.01 to 0.1
14,COC(=O)N1CCc2ccc3c(nc(C4CCCCC4)n3C[C@H]3CCCC[C@@H]3C(=O)O)c2C1 [Compound 196],0.01 to 0.1
15,COC(=O)N1CCc2ccc3c(nc(C4CCCCC4)n3C[C@@H](C(=O)O)c3ccccc3)c2C1 [Compound 197],0.01 to 0.1
16,COC(=O)N1CCc2ccc3c(nc(N4CCNCC4)n3[C@@H](C)Cc3ccccc3)c2C1 [Compound 198],0.01 to 0.1
17,COC(=O)N1CCc2ccc3c(nc(C4CCCCC4)n3C[C@@H](O)c3cccc(C(=O)O)c3)c2C1 [Compound 199],0.01 to 0.1
18,COC(=O)N1CCc2c([C@H]3CCOC3)cc3c(nc([C@H]4CC[C@H](C(=O)O)CC4)n3[C@H](C)Cc3ccccc3)c2C1 [Compound 201],0.01 to 0.1
19,COC(=O)N1CCc2ccc3c(nc([C@H]4CC[C@H](C(=O)O)CC4)n3[C@@H](C)C[C@H]3CC[C@H](OC)CC3)c2C1 [Compound 202],0.01 to 0.1
20,COC(=O)N1CCc2ccc3c(nc(C4CCCCC4)n3[C@@H](C)C[C@H]3CCCC[C@H]3C(=O)O)c2C1 [Compound 204],0.01 to 0.1
21,COC(=O)N1CCc2ccc3c(nc(-c4ccc(C(=O)O)c(OC)c4)n3[C@@H](C)Cc3ccccc3)c2C1 [Compound 208],0.01 to 0.1

row,Structure (SMILES),IC50 [µM]
1,COC(=O)N1CCc2ccc3c(nc(C4CCCCC4)n3[C@@H](C)C[C@@H]3CCCC[C@H]3C(=O)O)c2C1 [Compound 210],0.01 to 0.1
2,COC(=O)N1CCc2ccc3c(nc([C@@H]4CCC[C@@H](C(=O)O)C4)n3CC[C@H]3CC[C@@H](OC)CC3)c2C1 [Compound 215],0.01 to 0.1
3,COC(=O)N1CCc2ccc3c(nc(C4CCCCC4)n3CC[C@@H]3CCCC[C@@H]3C(=O)O)c2C1 [Compound 219],0.01 to 0.1
4,COC(=O)N1CCc2ccc3c(nc([C@H]4CC[C@H](C(=O)O)CC4)n3[C@@H](C)C[C@H]3CC[C@@H](OC)CC3)c2C1 [Compound 220],0.01 to 0.1
5,COC(=O)N1CCc2ccc3c(nc(C4CCCCC4)n3C[C@H]3CC[C@@H](C(=O)O)CC3)c2C1 [Compound 221],0.01 to 0.1
6,COC(=O)N1CCc2c(Cl)cc3c(nc(C4CCCCC4)n3C[C@H](C(=O)O)c3ccccc3)c2C1 [Compound 223],0.01 to 0.1
7,COC(=O)N1CCc2ccc3c(nc([C@H]4CC[C@H](C(=O)O)CC4)n3[C@@H](C)C[C@H]3CC[C@@H](OC(F)(F)F)CC3)c2C1 [Compound 226],0.01 to 0.1
8,COC(=O)N1CCc2ccc3c(nc(C4CCCCC4)n3C[C@@H]3CCCC[C@H]3C(=O)O)c2C1 [Compound 227],0.01 to 0.1
9,COC(=O)N1CCc2ccc3c(nc([C@H]4CC[C@](C)(C(=O)O)CC4)n3[C@@H](C)Cn3cc(Cl)cn3)c2C1 [Compound 231],0.01 to 0.1
10,COC(=O)N1Cc2c(ccc3c2nc(C2CCCCC2)n3CCc2ccccc2)C[C@H]1C [Compound 232],0.01 to 0.1
11,COC(=O)N1CCc2ccc3c(nc(N4CCN(C(C)=O)CC4)n3[C@@H](C)Cc3cccnc3)c2C1 [Compound 234],0.01 to 0.1
12,COC(=O)N1CCc2ccc3c(nc(C4CCCCC4)n3CC[C@@H]3CCCC[C@H]3C(=O)O)c2C1 [Compound 235],0.01 to 0.1
13,COC(=O)N1CCc2ccc3c(nc([C@H]4CC[C@H](C(=O)O)CC4)n3CCn3cc(Cl)cn3)c2C1 [Compound 236],0.01 to 0.1
14,COC(=O)N1CCc2ccc3c(nc(C4CCCCC4)n3[C@H](C)C[C@H]3CC[C@H](C(=O)O)CC3)c2C1 [Compound 237],0.01 to 0.1
15,COC(=O)N1Cc2c(ccc3c2nc(C2CCCCC2)n3CCc2ccccc2)CC1C (stereo not drawn) [Compound 238],0.01 to 0.1
16,COC(=O)N1CCc2ccc3c(nc(C4CCCCC4)n3[C@H](C)C[C@H]3CCCC[C@H]3C(=O)O)c2C1 [Compound 239],0.01 to 0.1
17,COC(=O)N1CCc2ccc3c(nc(C4CCCCC4)n3C[C@@H](C(=O)O)c3cc(F)ccc3OC)c2C1 [Compound 240],0.01 to 0.1
18,COC(=O)N1CCc2ccc3c(nc(C4CCCCC4)n3CCc3ccc(OC)c(C(=O)O)c3)c2C1 [Compound 242],0.01 to 0.1
19,COC(=O)N1CCc2ccc3c(nc(C4CCCCC4)n3CC[C@H]3CC[C@H](C(=O)O)CC3)c2C1 [Compound 243],0.01 to 0.1
20,COC(=O)N1CCc2ccc3c(nc([C@H]4CCC[C@H](C(=O)O)C4)n3C[C@H]3CC[C@@H](OC)CC3)c2C1 [Compound 245],0.01 to 0.1

# Results, then the molecule that gave them:
row,IC50 [µM],Structure (SMILES)
1,0.01 to 0.1,COC(=O)N1CCc2ccc3c(nc(C4CCN(S(=O)(=O)NC(C)=O)CC4)n3[C@@H](C)Cc3ccccc3)c2C1 [Compound 178]
2,0.01 to 0.1,COC(=O)N1CCc2ccc3c(nc([C@H]4CC[C@H](C(=O)O)CC4)n3[C@H](C)C[C@H]3CCCCO3)c2C1 [Compound 179]
3,0.01 to 0.1,COC(=O)N1CCc2ccc3c(nc(C4CCCCC4)n3[C@H](CC(=O)O)c3ccccc3)c2C1 [Compound 180]
4,0.01 to 0.1,COC(=O)N1CCc2ccc3c(nc([C@H]4CC[C@H](C(=O)O)CC4)n3[C@@H](C)Cc3cnccn3)c2C1 [Compound 186]
5,0.01 to 0.1,COC(=O)N1CCc2ccc3c(nc([C@H]4CC[C@H](C(=O)O)CC4)n3[C@@H](C)CC3CCOCC3)c2C1 [Compound 188]
6,0.01 to 0.1,COC(=O)N1CCc2ccc3c(nc([C@H]4CC[C@H](C(=O)O)CC4)n3C[C@H](OC)c3ccccc3)c2C1 [Compound 191]
7,0.01 to 0.1,COC(=O)N1CCc2ccc3c(nc([C@H]4CC[C@H](C(=O)O)CC4)n3[C@@H](C)Cc3ccccc3)c2C1 [Compound 192]
8,0.01 to 0.1,COC(=O)N1CCc2ccc3c(nc([C@H]4CC[C@H](C(=O)O)CC4)n3[C@@H](C)CC3CCCCC3)c2C1 [Compound 200]
9,0.01 to 0.1,COC(=O)N1CCc2ccc3c(nc(C4CCCC4)n3C[C@@H](C(=O)O)c3ccccc3)c2C1 [Compound 205]
10,0.01 to 0.1,COC(=O)N1CCc2ccc3c(nc(C4CCCCC4)n3[C@H](Cc3ccccc3)C(=O)O)c2C1 [Compound 206]
11,0.01 to 0.1,COC(=O)N1CCc2ccc3c(nc(C4CCN(C(C)=O)CC4)n3[C@@H](C)Cc3cccnc3)c2C1 [Compound 207]
12,0.01 to 0.1,COC(=O)N1CCc2ccc3c(nc([C@H]4CCC[C@H](C(=O)O)C4)n3Cc3ccc(OC(F)F)cc3)c2C1 [Compound 209]
13,0.01 to 0.1,COC(=O)N1CCc2ccc3c(nc([C@H]4CC[C@H](C(=O)O)CC4)n3C[C@@H]3CCc4ccccc4C3)c2C1 [Compound 211]
14,0.01 to 0.1,COC(=O)N1CCc2ccc3c(nc([C@H]4CC[C@H](C(=O)O)CC4)n3[C@H](C)C[C@@H]3CCCOC3)c2C1 [Compound 212]
15,0.01 to 0.1,COC(=O)N1CCc2ccc3c(nc(C4CCCCC4)n3[C@@H](CC(=O)O)c3ccccc3)c2C1 [Compound 213]
16,0.01 to 0.1,COC(=O)N1CCc2ccc3c(nc([C@H]4CC[C@H](C(=O)O)CC4)n3C[C@@H](OC)c3ccccc3)c2C1 [Compound 214]
17,0.01 to 0.1,COC(=O)N1CCc2ccc3c(nc([C@H]4CC[C@H](C(=O)O)CC4)n3[C@@H](C)Cc3ccncc3)c2C1 [Compound 216]
18,0.01 to 0.1,COC(=O)N1CCc2ccc3c(nc([C@@H]4CCC[C@@H](C(=O)O)C4)n3[C@H](C)Cc3ccc(F)c(F)c3)c2C1 [Compound 217]
19,0.01 to 0.1,COC(=O)N1CCc2ccc3c(nc([C@H]4CC[C@@H](C(=O)O)C4)n3[C@@H](C)Cc3ccccc3C)c2C1 [Compound 218]
20,0.01 to 0.1,COC(=O)N1CCc2ccc3c(nc(N4CC[C@H](C(=O)O)C4)n3[C@@H](C)Cc3ccccc3)c2C1 [Compound 222]
21,0.01 to 0.1,COC(=O)N1CCc2ccc3c(nc([C@H]4CC[C@](C)(C(=O)O)CC4)n3[C@@H](C)Cc3ccccc3)c2C1 [Compound 224]
22,0.01 to 0.1,COC(=O)N1CCc2ccc3c(nc([C@H]4CCC[C@H](C(=O)O)C4)n3Cc3cccc(Cl)n3)c2C1 [Compound 225]
23,0.01 to 0.1,CNC(=O)N1CCc2ccc3c(nc([C@H]4CC[C@H](C(=O)O)CC4)n3[C@@H](C)Cc3ccccc3)c2C1 [Compound 228]
24,0.01 to 0.1,COC(=O)N1CCc2ccc3c(nc([C@H]4CC[C@@H](C(=O)O)CC4)n3[C@@H](C)Cc3ccccc3)c2C1 [Compound 230]
25,0.01 to 0.1,C[C@H](Cc1ccccc1)n1c2ccc3c(c2nc1[C@H]1CC[C@H](C(=O)O)CC1)CN(C(=O)C1CC1)CC3 [Compound 244]
